System: rice
Assay: Low temperature assay on rice seedlings
Assay type: in vivo
Procedure: According to a low temperature assay, we measured parameters including plant height, number of leaf, area of leaf, number of tiller, weight of root at low temperature to completely determine effects of the natural brassinolide analogues on the resistance to low temperature of a plant.
The natural brassinolide analogues, BR1, BR2, BR3, BR4, BR5 and BR6, used herein, were those prepared by the method of Example 1. Respectively the analogues were dissolved into 95% (V/V) ethanol solution, and then diluted with pure water to 1 mg/L, 0.1 mg/L, 0.01 mg/L, 0.001 mg/L and 0.0001 mg/L. In addition, pure water was used as a control.
After rice seeds were disinfected by using 5% sodium hypochlorite solution treatment, they were rinsed with distilled water until their pH>7, placed into a petri dish in a dark incubator, and cultured by using water at 30° C.±2° C. for 9 days. Then respectively the nine-day-old etiolated seedlings of rice were immersed in the above solutions containing different concentrations of the natural brassinolide analogues or pure water, and cultured at the temperature of 1° C., 2° C., 3° C., 4° C. and 5° C. for 24 hr. The parameters including plant height, area of leaf and weight of root after 3, 6, 9 and 12 days and number of leaf and number of tiller after 12 days were measured.

C=C(C(C)C)[C@@H](O)[C@H](O)[C@@H](C)[C@H]1CCC2C3COC(=O)C4C[C@H](O)[C@H](O)C[C@]4(C)C3CC[C@@]21C (stereo partly shown) [BR3]
Height (0.01 mg/l, 3 °C, 9 days): 7.5 cm
Weight of root (0.01 mg/l, 3 °C, 9 days): 2.9 g
Area of leaf (0.01 mg/l, 3 °C, 12 days): 13.2 cm^2
Height (0.01 mg/l, 3 °C, 12 days): 7.8 cm
Number of leaf (0.01 mg/l, 3 °C, 12 days): 3
Number of tiller (0.01 mg/l, 3 °C, 12 days): 2
Weight of root (0.01 mg/l, 3 °C, 12 days): 2.9 g
Area of leaf (0.01 mg/l, 4 °C, 3 days): 10.8 cm^2
Height (0.01 mg/l, 4 °C, 3 days): 7.1 cm
Weight of root (0.01 mg/l, 4 °C, 3 days): 2.5 g
Area of leaf (0.01 mg/l, 4 °C, 6 days): 12.4 cm^2
Height (0.01 mg/l, 4 °C, 6 days): 7.4 cm
Weight of root (0.01 mg/l, 4 °C, 6 days): 2.6 g
Area of leaf (0.01 mg/l, 4 °C, 9 days): 13 cm^2
Height (0.01 mg/l, 4 °C, 9 days): 7.7 cm
Weight of root (0.01 mg/l, 4 °C, 9 days): 2.9 g
Area of leaf (0.01 mg/l, 4 °C, 12 days): 13.5 cm^2
Height (0.01 mg/l, 4 °C, 12 days): 7.8 cm
Number of leaf (0.01 mg/l, 4 °C, 12 days): 3
Number of tiller (0.01 mg/l, 4 °C, 12 days): 2
Weight of root (0.01 mg/l, 4 °C, 12 days): 3.0 g
Area of leaf (0.01 mg/l, 5 °C, 3 days): 10.3 cm^2
Height (0.01 mg/l, 5 °C, 3 days): 7.4 cm
Weight of root (0.01 mg/l, 5 °C, 3 days): 2.8 g
Area of leaf (0.01 mg/l, 5 °C, 6 days): 13.1 cm^2
Height (0.01 mg/l, 5 °C, 6 days): 7.6 cm
Weight of root (0.01 mg/l, 5 °C, 6 days): 3.0 g
Area of leaf (0.01 mg/l, 5 °C, 9 days): 16.4 cm^2
Height (0.01 mg/l, 5 °C, 9 days): 7.8 cm
Weight of root (0.01 mg/l, 5 °C, 9 days): 3.4 g
Area of leaf (0.01 mg/l, 5 °C, 12 days): 17 cm^2
Height (0.01 mg/l, 5 °C, 12 days): 8.2 cm
Number of leaf (0.01 mg/l, 5 °C, 12 days): 4
Number of tiller (0.01 mg/l, 5 °C, 12 days): 3
Weight of root (0.01 mg/l, 5 °C, 12 days): 3.9 g
Area of leaf (0.1 mg/l, 1 °C, 3 days): 10.1 cm^2
Height (0.1 mg/l, 1 °C, 3 days): 7.1 cm
Weight of root (0.1 mg/l, 1 °C, 3 days): 2.8 g
Area of leaf (0.1 mg/l, 1 °C, 6 days): 11 cm^2
Height (0.1 mg/l, 1 °C, 6 days): 7.2 cm
Weight of root (0.1 mg/l, 1 °C, 6 days): 2.9 g
Area of leaf (0.1 mg/l, 1 °C, 9 days): 12.1 cm^2
Height (0.1 mg/l, 1 °C, 9 days): 7.3 cm
Weight of root (0.1 mg/l, 1 °C, 9 days): 3.4 g
Area of leaf (0.1 mg/l, 1 °C, 12 days): 13.1 cm^2
Height (0.1 mg/l, 1 °C, 12 days): 7.4 cm
Number of leaf (0.1 mg/l, 1 °C, 12 days): 3
Number of tiller (0.1 mg/l, 1 °C, 12 days): 3
Weight of root (0.1 mg/l, 1 °C, 12 days): 3.6 g
Area of leaf (0.1 mg/l, 2 °C, 3 days): 10.4 cm^2
Height (0.1 mg/l, 2 °C, 3 days): 7.1 cm
Weight of root (0.1 mg/l, 2 °C, 3 days): 2.8 g
Area of leaf (0.1 mg/l, 2 °C, 6 days): 11.2 cm^2
Height (0.1 mg/l, 2 °C, 6 days): 7.3 cm
Weight of root (0.1 mg/l, 2 °C, 6 days): 3.0 g
Area of leaf (0.1 mg/l, 2 °C, 9 days): 12.6 cm^2
Height (0.1 mg/l, 2 °C, 9 days): 7.3 cm
Weight of root (0.1 mg/l, 2 °C, 9 days): 3 g
Area of leaf (0.1 mg/l, 2 °C, 12 days): 13.2 cm^2
Height (0.1 mg/l, 2 °C, 12 days): 7.4 cm
Number of leaf (0.1 mg/l, 2 °C, 12 days): 3
Number of tiller (0.1 mg/l, 2 °C, 12 days): 3
Weight of root (0.1 mg/l, 2 °C, 12 days): 3.2 g
Area of leaf (0.1 mg/l, 3 °C, 3 days): 10.5 cm^2
Height (0.1 mg/l, 3 °C, 3 days): 7.3 cm
Weight of root (0.1 mg/l, 3 °C, 3 days): 2.5 g
Area of leaf (0.1 mg/l, 3 °C, 6 days): 12 cm^2
Height (0.1 mg/l, 3 °C, 6 days): 7.4 cm
Weight of root (0.1 mg/l, 3 °C, 6 days): 2.7 g
Area of leaf (0.1 mg/l, 3 °C, 9 days): 12.1 cm^2
Height (0.1 mg/l, 3 °C, 9 days): 7.8 cm
Weight of root (0.1 mg/l, 3 °C, 9 days): 2.7 g
Area of leaf (0.1 mg/l, 3 °C, 12 days): 13.4 cm^2
Height (0.1 mg/l, 3 °C, 12 days): 7.9 cm
Number of leaf (0.1 mg/l, 3 °C, 12 days): 3
Number of tiller (0.1 mg/l, 3 °C, 12 days): 2
Weight of root (0.1 mg/l, 3 °C, 12 days): 2.9 g
Area of leaf (0.1 mg/l, 4 °C, 3 days): 10.8 cm^2
Height (0.1 mg/l, 4 °C, 3 days): 7.4 cm
Weight of root (0.1 mg/l, 4 °C, 3 days): 2.5 g
Area of leaf (0.1 mg/l, 4 °C, 6 days): 12 cm^2
Height (0.1 mg/l, 4 °C, 6 days): 7.4 cm
Weight of root (0.1 mg/l, 4 °C, 6 days): 2.7 g
Area of leaf (0.1 mg/l, 4 °C, 9 days): 13.4 cm^2
Height (0.1 mg/l, 4 °C, 9 days): 7.8 cm
Weight of root (0.1 mg/l, 4 °C, 9 days): 2.9 g
Area of leaf (0.1 mg/l, 4 °C, 12 days): 13.4 cm^2
Height (0.1 mg/l, 4 °C, 12 days): 8.1 cm
Number of leaf (0.1 mg/l, 4 °C, 12 days): 3
Number of tiller (0.1 mg/l, 4 °C, 12 days): 2
Weight of root (0.1 mg/l, 4 °C, 12 days): 3.1 g
Area of leaf (0.1 mg/l, 5 °C, 3 days): 11 cm^2
Height (0.1 mg/l, 5 °C, 3 days): 7.5 cm
Weight of root (0.1 mg/l, 5 °C, 3 days): 2.9 g
Area of leaf (0.1 mg/l, 5 °C, 6 days): 12.1 cm^2
Height (0.1 mg/l, 5 °C, 6 days): 7.5 cm
Weight of root (0.1 mg/l, 5 °C, 6 days): 3.2 g
Area of leaf (0.1 mg/l, 5 °C, 9 days): 16.2 cm^2
Height (0.1 mg/l, 5 °C, 9 days): 8 cm
Weight of root (0.1 mg/l, 5 °C, 9 days): 3.5 g
Area of leaf (0.1 mg/l, 5 °C, 12 days): 17.9 cm^2
Height (0.1 mg/l, 5 °C, 12 days): 8.1 cm
Number of leaf (0.1 mg/l, 5 °C, 12 days): 3
Number of tiller (0.1 mg/l, 5 °C, 12 days): 2
Weight of root (0.1 mg/l, 5 °C, 12 days): 4.1 g
Area of leaf (1 mg/l, 1 °C, 3 days): 10 cm^2
Height (1 mg/l, 1 °C, 3 days): 7.2 cm
Weight of root (1 mg/l, 1 °C, 3 days): 2.6 g
Area of leaf (1 mg/l, 1 °C, 6 days): 11 cm^2
Height (1 mg/l, 1 °C, 6 days): 7.2 cm
Weight of root (1 mg/l, 1 °C, 6 days): 3.1 g
Area of leaf (1 mg/l, 1 °C, 9 days): 12.4 cm^2
Height (1 mg/l, 1 °C, 9 days): 7.3 cm
Weight of root (1 mg/l, 1 °C, 9 days): 3.1 g
Area of leaf (1 mg/l, 1 °C, 12 days): 13 cm^2
Height (1 mg/l, 1 °C, 12 days): 7.9 cm
Number of leaf (1 mg/l, 1 °C, 12 days): 3
Number of tiller (1 mg/l, 1 °C, 12 days): 3
Weight of root (1 mg/l, 1 °C, 12 days): 3.7 g
Area of leaf (1 mg/l, 2 °C, 3 days): 10.2 cm^2
Height (1 mg/l, 2 °C, 3 days): 7.2 cm
Weight of root (1 mg/l, 2 °C, 3 days): 2.6 g
Area of leaf (1 mg/l, 2 °C, 6 days): 11.7 cm^2
Height (1 mg/l, 2 °C, 6 days): 7.2 cm
Weight of root (1 mg/l, 2 °C, 6 days): 3.0 g
Area of leaf (1 mg/l, 2 °C, 9 days): 12 cm^2
Height (1 mg/l, 2 °C, 9 days): 7.4 cm
Weight of root (1 mg/l, 2 °C, 9 days): 3.2 g
Area of leaf (1 mg/l, 2 °C, 12 days): 13 cm^2
Height (1 mg/l, 2 °C, 12 days): 8 cm
Number of leaf (1 mg/l, 2 °C, 12 days): 3
Number of tiller (1 mg/l, 2 °C, 12 days): 3
Weight of root (1 mg/l, 2 °C, 12 days): 3.7 g
Area of leaf (1 mg/l, 3 °C, 3 days): 10.4 cm^2
Height (1 mg/l, 3 °C, 3 days): 7.4 cm
Weight of root (1 mg/l, 3 °C, 3 days): 2.5 g
Area of leaf (1 mg/l, 3 °C, 6 days): 12 cm^2
Height (1 mg/l, 3 °C, 6 days): 7.5 cm
Weight of root (1 mg/l, 3 °C, 6 days): 2.6 g
Area of leaf (1 mg/l, 3 °C, 9 days): 12 cm^2
Height (1 mg/l, 3 °C, 9 days): 7.7 cm
Weight of root (1 mg/l, 3 °C, 9 days): 2.7 g
Area of leaf (1 mg/l, 3 °C, 12 days): 13.2 cm^2
Height (1 mg/l, 3 °C, 12 days): 8.1 cm
Number of leaf (1 mg/l, 3 °C, 12 days): 3
Number of tiller (1 mg/l, 3 °C, 12 days): 2
Weight of root (1 mg/l, 3 °C, 12 days): 2.9 g
Area of leaf (1 mg/l, 4 °C, 3 days): 10.9 cm^2
Height (1 mg/l, 4 °C, 3 days): 7.4 cm
Weight of root (1 mg/l, 4 °C, 3 days): 2.5 g
Area of leaf (1 mg/l, 4 °C, 6 days): 12 cm^2
Height (1 mg/l, 4 °C, 6 days): 7.5 cm
Weight of root (1 mg/l, 4 °C, 6 days): 2.7 g
Area of leaf (1 mg/l, 4 °C, 9 days): 13.2 cm^2
Height (1 mg/l, 4 °C, 9 days): 7.8 cm
Weight of root (1 mg/l, 4 °C, 9 days): 3.0 g
Area of leaf (1 mg/l, 4 °C, 12 days): 14 cm^2
Height (1 mg/l, 4 °C, 12 days): 8.2 cm
Number of leaf (1 mg/l, 4 °C, 12 days): 3
Number of tiller (1 mg/l, 4 °C, 12 days): 2
Weight of root (1 mg/l, 4 °C, 12 days): 3.2 g
Area of leaf (1 mg/l, 5 °C, 3 days): 11.1 cm^2
Height (1 mg/l, 5 °C, 3 days): 7.4 cm
Weight of root (1 mg/l, 5 °C, 3 days): 2.9 g
Area of leaf (1 mg/l, 5 °C, 6 days): 13.1 cm^2
Height (1 mg/l, 5 °C, 6 days): 7.5 cm
Weight of root (1 mg/l, 5 °C, 6 days): 3.5 g
Area of leaf (1 mg/l, 5 °C, 9 days): 18 cm^2
Height (1 mg/l, 5 °C, 9 days): 8.2 cm
Weight of root (1 mg/l, 5 °C, 9 days): 3.7 g
Area of leaf (1 mg/l, 5 °C, 12 days): 20 cm^2
Height (1 mg/l, 5 °C, 12 days): 8.3 cm
Number of leaf (1 mg/l, 5 °C, 12 days): 3
Number of tiller (1 mg/l, 5 °C, 12 days): 2
Weight of root (1 mg/l, 5 °C, 12 days): 4.5 g

Source: US9326506B2, “Preparation method, agricultural composition and applications of natural brassinolide analogs” (CHENGDU NEWSUN CROPSCIENCE CO., LTD, priority 2012, dated 2016)
